Results published in patent US5476848A, “14B(R) isomers of novel tetracyclic compounds having anti-allergic and anti-asthmatic activities, and their use” (Sankyo Company, Limited, priority 1989, dated 1995).
Structures can show the parent of a compound that is named as a salt.

What was measured:
[1] = test system: Passive Cutaneous Anaphylaxis (PCA); assay: Inhibitory effect on passive cutaneous anaphylaxis (PCA) in rats (Test Example 1); type: in vivo, rat (male SD); settings: Rattus norvegicus, po, read-out: Inhibitory rate
Protocol: Male SD rats (5 weeks old) were used as the test animals in groups, each containing 4 animals. The rats were sensitized by intradermal injection of 0.05 ml of the diluted antiserum solution in the dorsal position. 48 hours after this injection, a suspension of the test compound in an aqueous 0.5% w/v tragacanth solution was orally administered to the rats, fasted for one day, and 60 minutes later they were injected in the caudal vein with 5 ml/kg body weight of physiological saline containing 0.4% w/v egg albumin and 1.0% w/v Evans Blue.
The inhibitory rate was calculated by the following equation.
Inhibitory rate (%)=(1-B/A)×100
A: amount of exuded dye in the control group
B: amount of exuded dye in the test group.

[2] = test system: Antigen-induced Bronchoconstriction; assay: Effect on antigen-induced bronchoconstriction in sensitized guinea pigs (Test Example 2); type: in vivo, guinea pig (male Hartley); settings: Cavia porcellus, po, 60 min before challenge, read-out: Inhibitory rate
Protocol: The test animals used were male guinea pigs of the Hartley strain (weighing about 400 to 500 g). These animals were sensitized according to Morris' method [H. R. Morris; Br. J. Pharmac., 67, 179-184 (1979)]. The guinea pigs were subcutaneously and intraperitoneally injected twice, each time with 25 mg of egg albumin (grade 5, Sigma) at weekly intervals. 7 days after the second of these weekly injections, the animals were fasted for one day and then exposed to an aerosol of egg albumin (10 mg/ml). All of the animals so exposed responded with convulsions, indicating respiratory distress due to airway constriction, within 6 minutes.
60 minutes before the egg albumin challenge, one of the test compounds shown in the following Table 5 was administered orally to each of the animals.

eosinophil accumulation = assay: Inhibitory effect on antigen induced eosinophil accumulation (Test Example 4); type: in vivo, guinea pig (male Hartley); settings: po, 1 hr before antigen challenge, BALF 24 hr after; for Inhibitory effect (%) on accumulation of eosinophil: 0.1 mg/kg; for inhibition at 0.1 mg/kg: Cavia porcellus, Eosinophil;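 as to all read-outs here: oral dose 0.1 mg/kg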
Protocol: Male Hartley guinea pigs weighing approximately 400 g were sensitized with ovalbumin by the method described by Engineer et al. (Engineer, D. M. et al., J. Pharmacol., 62, 61-66 (1978)), and the number of eosinophils infiltrating into the bronchoalveolar space due to antigen challenge was examined.
Briefly, the animals were exposed to the antigen (ovalbumin) for 6 min. At 24 hr. after antigen challenge, the guinea pigs were anesthetized with pentobarbital (30 mg/kg, i.p.). The trachea was cannulated by a disposable intravenous catheter, and the airway lumen (especially in the right posterior lobe) was washed with 0.9% saline (10 ml/kg) kept at 37° C. The bronchoalveolar lavage fluid (BALF) from each animal was centrifuged (150 g for 10 min at 4° C.). After removing the supernatant, the cell pellet was resuspended in HBSS (Hank's balanced solution) and a total cell count was performed using a standard hemocytometer. Differential cell counts were done on smears fixed in methanol and stained with Wright-Giemsa solution, and by light microscopy under oil immersion (×1000). The proportion of eosinophil population was expressed as a percentage of total cells, and this ratio together with the total cell count was used to calculate the total number of eosinophils. The percent inhibition of the test compounds which was administered 1 hr before antigen challenge, was calculated as follows:
Percent inhibition=[1-(C-A)/(B-A)]×100
A: negative control: mean value of cell counts in BALF from the animals with inhaled saline
B: positive control: mean value of cell counts in BALF from the animals 24 h after antigen challenge
C: cell counts of BALF for the animals pretreated with a test compound 24 h after antigen challenge

eosinophil chemotaxis = assay: Inhibitory effect of eosinophil chemotaxis to zymosan-activated serum (Test Example 4); type: cell-based, guinea pig; settings: for Inhibitory effect (%) on chemotaxis of eosinophil / inhibition at 0.1 µg/mL: 0.1 μg/ml, ZAS; for inhibition at 0.1 µg/mL: Cavia porcellus, Eosinophil; for potency of the R-isomer relative to the racemate: eosinophil table, R-isomer vs racemate
Description: Eosinophils were harvested from the peritoneal cavity of polymyxin B-treated guinea pigs (body weight, approx. 400 g) according to the method described by Pincus (Pincus, S. H. et al.: Blood, 52, 127-134 (1978)). The eosinophils were separated and purified by Ficoll-paque (Pharmacia) density gradient centrifugation. Then, the eosinophil chemotaxis to zymosan-activated serum (ZAS) was investigated by a modification of the Boyden micropore filter technique (Gosset, P. et al.: Clin. Exp. Immunol., 65, 654-663 (1986)). Briefly, the assay was carried out in a 48-well microchemotaxis assembly (Neuroprobe; Cabin John, Md., U.S.A.). Cell suspensions were adjusted to 2.5×10^5 /50 μl, and placed in the upper chamber separated from the chemoattractant (ZAS) solution in the lower chamber by a 3 μm pore size polycarbonate membrane filter (Nucleopore Co., Pleasanton, U.S.A.). The cells were incubated for 10 min at 37° C. with the test compounds, prior to their addition to the chemotaxis chamber. Migration was carried out at 37° C. in humidified air with 5% CO2 for 2 h. After the incubation, the migrated eosinophils in the lower Chamber were counted by a hemocytometer.
The percentage inhibition obtained with the test compound was calculated by comparison to the positive control (migration of non-treated cells in response to the ZAS), according to the formula:
Percent inhibition=[1-(A/B)]×100
A: (migration with a test compound)-(spontaneous migration)
B: (positive control migration)-(spontaneous migration)

`OCCOCCOCCN1CCN2c3ccccc3Cc3ccccc3C2C1` (stereo not shown) [Example 7] gave an inhibition at 0.8 mg/kg [1] of 50%, an inhibition at 3.1 mg/kg [1] of 57% and an inhibition at 12.5 mg/kg ([1]; 12.5 mg/kg) of 72%. It also gave an inhibition at 0.4 mg/kg [2] of 100%.
In the case of `O=C(O)CCCN1CCN2c3ccccc3Cc3ccccc3C2C1` (racemic) [22 HCl racemate], the “Inhibitory effect (%) on accumulation of eosinophil” value (eosinophil accumulation) is reported as 31% and the “Inhibitory effect (%) on chemotaxis of eosinophil” value (eosinophil chemotaxis) is reported as 6%.
`O=C(O)COCCN1CCN2c3ccc(Br)cc3Cc3ccccc3C2C1` (stereo not shown) [Example 10] gave an inhibition at 3.1 mg/kg [1] of 53%.
Work on `O=C(O)CCCCCN1CCN2c3ccccc3Cc3ccccc3C2C1` (racemic) [Example 24, 6-(1,2,3,4,10,14b-Hexahydrodibenzo[c,f]pyrazino[1,2-a]azepin-2-yl)hexanoic acid] yielded an inhibition at 0.05 mg/kg [1] of 46%, an inhibition at 3.1 mg/kg [1] of 74% and an inhibition at 0.1 mg/kg [2] of 80%. For the same molecule, the inhibition at 0.4 mg/kg [2] was 100%.
With `OCCCN1CCN2c3ccccc3Cc3ccccc3C2C1` (stereo not shown) [Example 16, 3-(1,2,3,4,10,14b-Hexahydrodibenzo[c,f]pyrazino[1,2-a]azepin-2-yl)propanol] the inhibition at 0.8 mg/kg [1] was 48%, the inhibition at 3.1 mg/kg [1] was 63% and the inhibition at 0.1 mg/kg [2] was 60%. The inhibition at 0.4 mg/kg [2] was 100%.
With `CCOC(=O)CCCN1CCN2c3ccccc3Cc3ccccc3[C@H]2C1` [19 fumarate S-isomer] the inhibition at 0.1 mg/kg (eosinophil accumulation) was 32% and the “Inhibitory effect (%) on chemotaxis of eosinophil” value (eosinophil chemotaxis) was 0%.
`O=C(O)COCCN1CCN2c3ccccc3Cc3ccccc3C2C1` (stereo not shown) [Example 2] was tested, and the inhibition at 0.05 mg/kg [1] was 62%, the inhibition at 0.8 mg/kg [1] was 74% and the inhibition at 0.025 mg/kg [2] was 20%. It also gave an inhibition at 0.1 mg/kg [2] of 80%.
For `CCOC(=O)CCCN1CCN2c3ccccc3Cc3ccccc3C2C1` (racemic) [19 fumarate racemate], the “Inhibitory effect (%) on accumulation of eosinophil” value (eosinophil accumulation) was 24% and the inhibition at 0.1 µg/mL (eosinophil chemotaxis) was 3%.
In the case of `O=C(O)COCCN1CCN2c3ccccc3Cc3ccccc3[C@H]2C1` [Example 59, (S)-2-(1,2,3,4,10,14b-Hexahydrodibenzo[c,f]pyrazino[1,2-a]azepin-2-yl)ethoxyacetic Acid], the inhibition at 0.05 mg/kg [1] is reported as 59%, the inhibition at 0.2 mg/kg [1] is reported as 74% and the inhibition at 0.05 mg/kg ([2]; 0.05 mg/kg) is reported as 60%.
With `CCOC(=O)COCCN1CCN2c3ccccc3Cc3ccccc3C2C1` (stereo not shown) [Example 1] the inhibition at 0.2 mg/kg [1] was 56%, the inhibition at 3.1 mg/kg [1] was 65% and the inhibition at 0.025 mg/kg [2] was 20%. The inhibition at 0.1 mg/kg [2] was 50%.
With `O=C(O)CCCCCN1CCN2c3ccccc3Cc3ccccc3[C@@H]2C1` [24 HCl R-isomer] the inhibition at 0.1 mg/kg (eosinophil accumulation) was 62%, the inhibition at 0.1 µg/mL (eosinophil chemotaxis) was 47% and the “potency of the R-isomer relative to the racemate” value (eosinophil chemotaxis) was “about double the potency”.
`CCCN(CCC)C(=O)COCCN1CCN2c3ccccc3Cc3ccccc3C2C1` (stereo not drawn) [Example 31, α-[2-(1,2,3,4,10,14b-Hexahydrodibenzo[c,f]pyrazino[1,2-a]azepin-2-yl)ethoxy]-N,N-dipropylacetamide] gave an inhibition at 0.8 mg/kg [1] of 32% and an inhibition at 3.1 mg/kg [1] of 76%.
`O=C(O)CN1CCN2c3ccccc3Cn3cccc3C2C1` (stereo not shown) [Prior art compound G, Sodium (1,3,4,14btetrahydro-2H,10H-pyrazino[1,2a]pyrrolo[2,1c][1,4]benzodiazepin-yl)acetate, reference compound] was tested, and the inhibition at 3.1 mg/kg [1] was 28%.
For `CCOC(=O)CCCCCN1CCN2c3ccccc3Cc3ccccc3C2C1` (racemic) [21 HCl racemate], the inhibition at 0.1 mg/kg (eosinophil accumulation) was 37% and the inhibition at 0.1 µg/mL (eosinophil chemotaxis) was 23%.
In the case of `COC(=O)COCCN1CCN2c3ccc(Br)cc3Cc3ccccc3C2C1` (stereo not shown) [Example 5, Methyl 2-(8-bromo-1,2,3,4,10,14b-hexahydrodibenzo[c,f]pyrazino[1,2-a]azepin-2-yl)ethoxyacetate], the inhibition at 0.8 mg/kg [1] is reported as 23% and the inhibition at 3.1 mg/kg [1] is reported as 67%.
With `CCOC(=O)CCCN1CCN2c3ccccc3Cc3ccccc3[C@@H]2C1` [19 HCl R-isomer] the “Inhibitory effect (%) on accumulation of eosinophil” value (eosinophil accumulation) was 58% and the “Inhibitory effect (%) on chemotaxis of eosinophil” value (eosinophil chemotaxis) was 43%.
In the case of `CCOC(=O)CCCCCN1CCN2c3ccccc3Cc3ccccc3[C@@H]2C1` [21 HCl R-isomer], the inhibition at 0.1 mg/kg (eosinophil accumulation) is reported as 80%, the inhibition at 0.1 µg/mL (eosinophil chemotaxis) is reported as 50% and the “potency of the R-isomer relative to the racemate” value (eosinophil chemotaxis) is reported as “about double the potency”.
With `O=C(O)CCCN1CCN2c3ccccc3Cc3ccccc3C2C1` (racemic) [22 free racemate] the “Inhibitory effect (%) on accumulation of eosinophil” value (eosinophil accumulation) was 3% and the inhibition at 0.1 µg/mL (eosinophil chemotaxis) was 9%.
`O=C(O)CCCCCN1CCN2c3ccccc3Cc3ccccc3C2C1` (racemic) [24 HCl racemate] gave an inhibition at 0.1 mg/kg (eosinophil accumulation) of 43% and an inhibition at 0.1 µg/mL (eosinophil chemotaxis) of 25%.
`OCCCCCCN1CCN2c3ccccc3Cc3ccccc3C2C1` (stereo not shown) [Example 18, 6-(1,2,3,4,10,14b-Hexahydrodibenzo[c,f]pyrazino[1,2-a]azepin-2-yl)hexanol] was tested, and the inhibition at 0.4 mg/kg [2] was 100%.
`CN(C)C(=O)COCCN1CCN2c3ccccc3Cc3ccccc3C2C1` (stereo not drawn) [Example 27, α-[2-(1,2,3,4,10,14b-Hexahydrodibenzo[c,f]pyrazino[1,2-a]azepin-2-yl)ethoxy]-N,N-dimethylacetamide] showed an inhibition at 3.1 mg/kg [1] of 69%.
Work on `CCOC(=O)CCCCCN1CCN2c3ccccc3Cc3ccccc3[C@H]2C1` [21 HCl S-isomer] yielded an inhibition at 0.1 mg/kg (eosinophil accumulation) of 13% and an inhibition at 0.1 µg/mL (eosinophil chemotaxis) of 9%.
In the case of `O=C(O)COCCN1CCN2c3ccc(Cl)cc3Cc3ccccc3C2C1` (stereo not shown) [Example 9], the inhibition at 3.1 mg/kg [1] is reported as 63%.
Work on `O=C(O)CCCN1CCN2c3ccccc3Cc3ccccc3[C@H]2C1` [22 HCl S-isomer] yielded an inhibition at 0.1 mg/kg (eosinophil accumulation) of 47% and an inhibition at 0.1 µg/mL (eosinophil chemotaxis) of 5%.
Work on `O=C(O)COCCN1CCN2c3ncccc3Cc3ccccc3C2C1` (stereo not shown) [Example 11, 2-(1,2,3,4,10,14b-Hexahydrobenzo[c]pyrazino[1,2-a]pyrido[5,6-c]azepin-2-yl)ethoxyacetic acid] yielded an inhibition at 0.8 mg/kg [1] of 49% and an inhibition at 3.1 mg/kg [1] of 60%.
Molecule `CCOC(=O)COCCN1CCN2c3ccc(Cl)cc3Cc3ccccc3C2C1` (stereo not shown) [Example 4] has an inhibition at 3.1 mg/kg [1] of 63%.
In the case of `CCOC(=O)CCCN1CCN2c3ccccc3Cc3ccccc3C2C1` (racemic) [19 HCl racemate], the “Inhibitory effect (%) on accumulation of eosinophil” value (eosinophil accumulation) is reported as 48% and the “Inhibitory effect (%) on chemotaxis of eosinophil” value (eosinophil chemotaxis) is reported as 5%.
Work on `CCOC(=O)CCCN1CCN2c3ccccc3Cc3ccccc3[C@@H]2C1` [19 fumarate R-isomer] yielded an inhibition at 0.1 mg/kg (eosinophil accumulation) of 62% and an inhibition at 0.1 µg/mL (eosinophil chemotaxis) of 55%.
Molecule `O=C(O)CCCCCN1CCN2c3ccccc3Cc3ccccc3[C@H]2C1` [24 HCl S-isomer] has an inhibition at 0.1 mg/kg (eosinophil accumulation) of 2% and an inhibition at 0.1 µg/mL (eosinophil chemotaxis) of 0%.
In the case of `CCOC(=O)CCCN1CCN2c3ccccc3Cc3ccccc3[C@H]2C1` [19 HCl S-isomer], the “Inhibitory effect (%) on accumulation of eosinophil” value (eosinophil accumulation) is reported as 41% and the “Inhibitory effect (%) on chemotaxis of eosinophil” value (eosinophil chemotaxis) is reported as 1%.
